Here are results for 15 compounds from ChEMBL document CHEMBL5291721, “A preclinical secondary pharmacology resource illuminates target-adverse drug reaction associations of marketed drugs” (Nat Commun, 2023).

In one experiment the target is T1, Adenosine receptor A1 (Homo sapiens, UniProt P30542).
T1 sequence (P30542 whole entry): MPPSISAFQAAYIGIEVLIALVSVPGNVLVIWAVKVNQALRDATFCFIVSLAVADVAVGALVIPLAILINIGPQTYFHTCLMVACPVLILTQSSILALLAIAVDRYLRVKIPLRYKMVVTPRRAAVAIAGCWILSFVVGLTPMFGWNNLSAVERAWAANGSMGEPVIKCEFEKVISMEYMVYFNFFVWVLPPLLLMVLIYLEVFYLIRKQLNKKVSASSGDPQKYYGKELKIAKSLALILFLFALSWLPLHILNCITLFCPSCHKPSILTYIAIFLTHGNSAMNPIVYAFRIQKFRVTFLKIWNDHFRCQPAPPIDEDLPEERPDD

Experiment [1] concerns the target T2, Type-1 angiotensin II receptor (Homo sapiens, UniProt P30556).
T2 sequence (P30556 whole entry): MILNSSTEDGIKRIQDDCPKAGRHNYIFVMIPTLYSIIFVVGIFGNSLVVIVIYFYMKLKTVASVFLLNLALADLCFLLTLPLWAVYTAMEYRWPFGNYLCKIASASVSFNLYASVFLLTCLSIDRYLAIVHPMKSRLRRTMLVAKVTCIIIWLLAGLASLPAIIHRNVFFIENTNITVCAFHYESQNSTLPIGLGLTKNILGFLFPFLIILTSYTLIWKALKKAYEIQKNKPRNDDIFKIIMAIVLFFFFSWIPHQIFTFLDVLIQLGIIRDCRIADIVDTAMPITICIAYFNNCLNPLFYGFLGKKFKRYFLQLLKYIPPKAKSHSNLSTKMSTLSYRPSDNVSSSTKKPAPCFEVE

A further experiment concerns the target Vasopressin V2 receptor (Homo sapiens, UniProt P30518).
The target of experiment [2] is T3, Muscarinic acetylcholine receptor M2 (Homo sapiens, UniProt P08172).
T3 sequence (P08172 whole entry): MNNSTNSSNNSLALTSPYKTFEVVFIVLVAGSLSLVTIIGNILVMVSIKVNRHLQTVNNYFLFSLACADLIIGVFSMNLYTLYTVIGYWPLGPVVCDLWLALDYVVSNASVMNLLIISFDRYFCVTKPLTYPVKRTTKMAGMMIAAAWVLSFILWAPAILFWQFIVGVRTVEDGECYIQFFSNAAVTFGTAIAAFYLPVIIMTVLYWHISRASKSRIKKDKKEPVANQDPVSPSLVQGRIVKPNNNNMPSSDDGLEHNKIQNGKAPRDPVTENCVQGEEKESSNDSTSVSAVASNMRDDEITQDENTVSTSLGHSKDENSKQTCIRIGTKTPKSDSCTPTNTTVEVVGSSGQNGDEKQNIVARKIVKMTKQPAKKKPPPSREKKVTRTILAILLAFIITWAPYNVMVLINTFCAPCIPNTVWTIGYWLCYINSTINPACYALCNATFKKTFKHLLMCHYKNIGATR
The experiment is classed as functional, cell-based.

Experiment [3] deals with T4, Gamma-aminobutyric acid receptor subunit alpha-1 (Rattus norvegicus, UniProt P62813).
Experiment [4] deals with T4, Gamma-aminobutyric acid receptor subunit alpha-1. It counts as functional.
A further experiment addresses Histamine H1 receptor (Homo sapiens, UniProt P35367).
Experiment [5] deals with 5-hydroxytryptamine receptor 2B (Homo sapiens, UniProt P41595). The experiment is classed as functional, cell-based.
For experiment [6], the target named is 3',5'-cyclic-AMP phosphodiesterase 4D (Homo sapiens, UniProt Q08499). The experiment is classed as functional.
The target of another experiment is T5, Glucocorticoid receptor (Homo sapiens, UniProt P04150).
T5 sequence (P04150 whole entry): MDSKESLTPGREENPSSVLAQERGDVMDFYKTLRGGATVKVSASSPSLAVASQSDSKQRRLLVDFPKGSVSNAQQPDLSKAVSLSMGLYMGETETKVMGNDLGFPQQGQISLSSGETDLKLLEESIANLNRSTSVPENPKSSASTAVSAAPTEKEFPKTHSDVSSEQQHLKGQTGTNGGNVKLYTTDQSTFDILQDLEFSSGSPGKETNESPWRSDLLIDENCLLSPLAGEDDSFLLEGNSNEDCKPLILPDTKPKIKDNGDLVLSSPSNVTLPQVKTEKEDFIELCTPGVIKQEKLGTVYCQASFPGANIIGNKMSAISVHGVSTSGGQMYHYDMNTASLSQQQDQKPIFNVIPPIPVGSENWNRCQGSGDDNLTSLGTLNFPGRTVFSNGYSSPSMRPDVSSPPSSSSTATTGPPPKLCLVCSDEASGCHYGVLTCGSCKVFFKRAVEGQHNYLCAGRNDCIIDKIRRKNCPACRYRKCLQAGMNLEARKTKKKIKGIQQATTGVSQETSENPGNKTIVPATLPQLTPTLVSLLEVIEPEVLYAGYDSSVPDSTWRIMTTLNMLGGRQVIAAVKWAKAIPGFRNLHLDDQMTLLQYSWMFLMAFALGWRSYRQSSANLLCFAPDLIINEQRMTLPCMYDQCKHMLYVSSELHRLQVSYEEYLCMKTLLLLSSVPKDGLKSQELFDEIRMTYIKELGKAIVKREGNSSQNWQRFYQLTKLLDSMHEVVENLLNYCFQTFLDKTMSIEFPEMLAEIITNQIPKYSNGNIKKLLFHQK

For another experiment, the target named is Cannabinoid receptor 1 (Homo sapiens, UniProt P21554). The experiment is classed as functional, cell-based.
Note: assay procedure not described here.

5-hydroxytryptamine receptor 2B, sequence (P41595 whole entry): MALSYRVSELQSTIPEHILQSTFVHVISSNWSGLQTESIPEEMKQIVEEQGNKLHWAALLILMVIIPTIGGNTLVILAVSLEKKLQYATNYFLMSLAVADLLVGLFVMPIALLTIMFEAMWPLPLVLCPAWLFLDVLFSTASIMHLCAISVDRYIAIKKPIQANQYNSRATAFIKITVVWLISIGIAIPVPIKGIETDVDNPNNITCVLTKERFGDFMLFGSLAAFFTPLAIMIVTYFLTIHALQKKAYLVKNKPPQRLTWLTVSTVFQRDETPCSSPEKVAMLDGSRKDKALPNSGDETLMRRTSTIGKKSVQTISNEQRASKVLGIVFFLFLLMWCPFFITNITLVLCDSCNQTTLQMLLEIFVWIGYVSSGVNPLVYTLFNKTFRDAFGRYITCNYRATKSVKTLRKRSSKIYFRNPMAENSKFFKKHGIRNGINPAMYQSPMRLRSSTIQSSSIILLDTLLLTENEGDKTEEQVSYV
3',5'-cyclic-AMP phosphodiesterase 4D, sequence (Q08499 whole entry): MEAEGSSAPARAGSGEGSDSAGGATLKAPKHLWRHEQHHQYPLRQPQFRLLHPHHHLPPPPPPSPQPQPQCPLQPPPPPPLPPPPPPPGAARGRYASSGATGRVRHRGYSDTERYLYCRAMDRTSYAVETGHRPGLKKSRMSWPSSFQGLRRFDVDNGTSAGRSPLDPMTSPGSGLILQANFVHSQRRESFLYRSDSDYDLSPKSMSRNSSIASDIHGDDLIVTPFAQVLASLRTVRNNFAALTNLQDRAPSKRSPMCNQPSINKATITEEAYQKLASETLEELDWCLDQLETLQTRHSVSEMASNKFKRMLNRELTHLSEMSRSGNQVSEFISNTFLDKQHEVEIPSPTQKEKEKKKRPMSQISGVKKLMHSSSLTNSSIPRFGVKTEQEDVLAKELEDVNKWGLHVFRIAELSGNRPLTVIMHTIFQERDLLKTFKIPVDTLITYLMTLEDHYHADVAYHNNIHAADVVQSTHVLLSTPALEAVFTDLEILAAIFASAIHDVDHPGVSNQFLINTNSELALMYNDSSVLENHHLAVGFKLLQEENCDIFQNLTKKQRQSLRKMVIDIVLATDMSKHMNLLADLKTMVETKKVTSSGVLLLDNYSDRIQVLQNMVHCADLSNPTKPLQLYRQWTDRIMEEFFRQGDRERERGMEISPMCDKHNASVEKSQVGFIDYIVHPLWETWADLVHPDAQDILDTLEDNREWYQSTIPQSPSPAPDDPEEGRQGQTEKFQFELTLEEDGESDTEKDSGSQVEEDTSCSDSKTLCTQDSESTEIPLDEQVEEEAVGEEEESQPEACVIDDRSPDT
T4 sequence (P62813 whole entry): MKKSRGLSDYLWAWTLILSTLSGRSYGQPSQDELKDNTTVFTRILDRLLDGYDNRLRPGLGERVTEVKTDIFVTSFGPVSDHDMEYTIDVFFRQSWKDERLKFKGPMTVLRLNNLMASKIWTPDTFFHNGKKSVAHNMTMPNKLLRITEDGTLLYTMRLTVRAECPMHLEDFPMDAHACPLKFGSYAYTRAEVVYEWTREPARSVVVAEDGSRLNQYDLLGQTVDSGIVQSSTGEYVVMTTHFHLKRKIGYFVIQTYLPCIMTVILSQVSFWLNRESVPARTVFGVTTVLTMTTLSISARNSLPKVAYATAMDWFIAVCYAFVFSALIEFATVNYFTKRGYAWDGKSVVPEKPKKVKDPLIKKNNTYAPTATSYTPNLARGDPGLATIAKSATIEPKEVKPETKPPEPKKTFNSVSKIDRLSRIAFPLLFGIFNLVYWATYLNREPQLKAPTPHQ
Cannabinoid receptor 1, sequence (P21554 whole entry): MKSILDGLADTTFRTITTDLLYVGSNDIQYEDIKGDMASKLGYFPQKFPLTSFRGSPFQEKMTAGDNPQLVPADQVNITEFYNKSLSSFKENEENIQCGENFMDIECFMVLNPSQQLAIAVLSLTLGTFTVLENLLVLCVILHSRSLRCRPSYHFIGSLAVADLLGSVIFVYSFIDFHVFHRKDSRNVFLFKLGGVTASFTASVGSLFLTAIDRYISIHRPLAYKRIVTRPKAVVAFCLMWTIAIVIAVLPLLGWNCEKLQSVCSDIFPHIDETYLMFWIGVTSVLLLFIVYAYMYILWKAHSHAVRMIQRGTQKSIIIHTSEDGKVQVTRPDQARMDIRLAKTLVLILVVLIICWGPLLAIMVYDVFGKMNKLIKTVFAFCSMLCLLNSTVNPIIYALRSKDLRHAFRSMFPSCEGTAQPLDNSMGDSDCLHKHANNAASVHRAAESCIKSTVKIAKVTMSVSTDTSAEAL
Vasopressin V2 receptor, sequence (P30518 whole entry): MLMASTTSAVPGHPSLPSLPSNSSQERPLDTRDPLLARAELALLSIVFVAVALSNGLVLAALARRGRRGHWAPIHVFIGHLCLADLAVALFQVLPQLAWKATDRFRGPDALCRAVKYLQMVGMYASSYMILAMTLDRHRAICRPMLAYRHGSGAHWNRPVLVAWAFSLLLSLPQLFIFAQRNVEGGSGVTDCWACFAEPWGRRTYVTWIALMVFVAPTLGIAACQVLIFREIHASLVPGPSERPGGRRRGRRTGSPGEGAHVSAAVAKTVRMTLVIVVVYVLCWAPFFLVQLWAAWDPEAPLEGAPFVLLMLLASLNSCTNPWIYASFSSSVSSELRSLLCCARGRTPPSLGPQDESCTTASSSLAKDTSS
Histamine H1 receptor, sequence (P35367 whole entry): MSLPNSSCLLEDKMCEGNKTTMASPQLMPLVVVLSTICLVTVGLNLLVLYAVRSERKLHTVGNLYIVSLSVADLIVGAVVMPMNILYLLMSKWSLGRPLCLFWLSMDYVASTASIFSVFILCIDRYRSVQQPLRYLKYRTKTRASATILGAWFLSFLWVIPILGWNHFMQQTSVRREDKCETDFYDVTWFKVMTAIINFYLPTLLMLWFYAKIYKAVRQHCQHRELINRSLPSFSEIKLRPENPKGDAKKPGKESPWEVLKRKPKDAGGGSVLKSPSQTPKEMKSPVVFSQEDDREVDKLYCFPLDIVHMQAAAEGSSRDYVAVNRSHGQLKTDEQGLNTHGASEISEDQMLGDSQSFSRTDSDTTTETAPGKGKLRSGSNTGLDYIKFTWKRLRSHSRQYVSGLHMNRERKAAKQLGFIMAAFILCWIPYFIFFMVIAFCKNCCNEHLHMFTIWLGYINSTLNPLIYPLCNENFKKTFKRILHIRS

By AC50 is commonly meant the concentration giving half of the maximal activity seen. Higher therefore signals weaker potency. Consider `COC(=O)[C@H]1[C@H]2C[C@@H]3c4[nH]c5ccccc5c4CCN3C[C@H]2C[C@@H](OC(=O)c2cc(OC)c(OC)c(OC)c2)[C@@H]1OC` [DESERPIDINE], for which the concentration at half-maximal activity (AC50) was greater than 30 µM on Adenosine receptor A1; greater than 10 µM in experiment [1]; greater than 30 µM on Vasopressin V2 receptor; greater than 10 µM in [2]; greater than 10 µM in [3]; greater than 10 µM in experiment [4]. The values for the concentration at half-maximal activity (AC50) (on Histamine H1 receptor; in experiment [5]; in [6]) were greater than 10 µM, greater than 10 µM and greater than 30 µM, respectively.

Consider `CCC1(C)CC(=O)NC1=O` (stereo unspecified) [ETHOSUXIMIDE], for which the AC50 (on Adenosine receptor A1; in experiment [1]; at Vasopressin V2 receptor; in [2]; in experiment [3]; in [4]) was greater than 10 µM in each case. Moreover, the AC50 was greater than 10 µM in [5], greater than 10 µM on Glucocorticoid receptor and greater than 30 µM in [6].

As for `CC(=O)[C@@]1(O)CC[C@H]2[C@@H]3C[C@H](C)C4=CC(=O)C=C[C@]4(C)[C@@]3(F)[C@@H](O)C[C@@]21C` [FLUOROMETHOLONE], the AC50 on Adenosine receptor A1 is greater than 10 µM; in [1], greater than 10 µM; at Vasopressin V2 receptor, greater than 10 µM; in experiment [2], greater than 10 µM; on Cannabinoid receptor 1, greater than 30 µM; in [3], greater than 10 µM. Moreover, the AC50 in experiment [4] is greater than 10 µM; in experiment [5], greater than 10 µM; at Glucocorticoid receptor it was 0.004 µM; in experiment [6] it was greater than 30 µM.

In the case of `Nc1cc(N2CCCCC2)nc(N)[n+]1[O-]` [MINOXIDIL], the concentration at half-maximal activity (AC50) on Adenosine receptor A1 is greater than 30 µM; in experiment [1], greater than 30 µM; on Vasopressin V2 receptor it was greater than 30 µM; in experiment [2], greater than 10 µM; in [3] it was greater than 10 µM; in experiment [4], greater than 10 µM. Moreover, the results for the AC50 (in [5]; on Glucocorticoid receptor; in experiment [6]) were greater than 10 µM, greater than 30 µM and greater than 30 µM, respectively.

Turning to `Cc1cccc(Nc2ccncc2S(=O)(=O)NC(=O)NC(C)C)c1` [TORSEMIDE], the half-maximal activity concentration (AC50) on Adenosine receptor A1 was greater than 30 µM; in [1], greater than 10 µM; at Vasopressin V2 receptor it was greater than 30 µM; in [2], greater than 10 µM; in experiment [3], greater than 10 µM; in [4], greater than 10 µM. The AC50 is greater than 10 µM in experiment [5], greater than 10 µM on Glucocorticoid receptor and greater than 30 µM in experiment [6].

Take `CC1CC(OC(=O)C(O)c2ccccc2)CC(C)(C)C1` (stereo unspecified) [CYCLANDELATE]: the AC50 (at Adenosine receptor A1; in [1]; on Vasopressin V2 receptor; in [2]; in experiment [3]; in experiment [4]) was greater than 10 µM each time. Further, the AC50 in [5] was greater than 10 µM; in experiment [6] it was greater than 30 µM.

On to `CC(=O)N1CCN(c2ccc(OCC3COC(Cn4ccnc4)(c4ccc(Cl)cc4Cl)O3)cc2)CC1` (stereo unspecified) [KETOCONAZOLE], for which the AC50 at Adenosine receptor A1 was greater than 30 µM; in experiment [1], greater than 10 µM; at Vasopressin V2 receptor, greater than 10 µM; at Cannabinoid receptor 1, greater than 30 µM; in experiment [3], greater than 10 µM; in experiment [4], greater than 10 µM. The half-maximal activity concentration (AC50) in [5] is 15 µM; on Glucocorticoid receptor it was greater than 10 µM; in experiment [6], greater than 10 µM.

`Nc1nc(Cl)nc2c1ncn2[C@@H]1O[C@H](CO)[C@@H](O)[C@@H]1F` [CLOFARABINE]: the half-maximal activity concentration (AC50) on Adenosine receptor A1 is 2.3 µM; in [1], greater than 30 µM; at Vasopressin V2 receptor, greater than 30 µM; in experiment [2], greater than 10 µM; in experiment [3], greater than 10 µM; in experiment [4] it was greater than 10 µM. Besides, the half-maximal activity concentration (AC50) at Histamine H1 receptor is greater than 30 µM; in experiment [5] it was greater than 30 µM; in experiment [6], 0.17 µM.

Turning to `CC(C(=O)O)c1ccc(C(=O)c2ccccc2)s1` (stereo unspecified) [TIAPROFENIC ACID], the concentration at half-maximal activity (AC50) at Adenosine receptor A1 was greater than 10 µM; in experiment [1], greater than 10 µM; at Vasopressin V2 receptor, greater than 10 µM; in experiment [2], greater than 10 µM; on Cannabinoid receptor 1 it was greater than 30 µM; in experiment [3], greater than 10 µM. Further, the AC50 is greater than 30 µM in experiment [4], greater than 10 µM in experiment [5] and greater than 30 µM in experiment [6].

Take `N=C(N)NC(=O)Cc1c(Cl)cccc1Cl` [GUANFACINE]: the concentration at half-maximal activity (AC50) (at Adenosine receptor A1; in experiment [1]; on Vasopressin V2 receptor; in [2]; on Cannabinoid receptor 1; in [3]) was greater than 30 µM each time. Also, the AC50 (in [4]; on Glucocorticoid receptor; in experiment [6]) was greater than 30 µM in each case.

On to `CN(Cc1ccc(C(C)(C)C)cc1)Cc1cccc2ccccc12` [BUTENAFINE], for which the half-maximal activity concentration (AC50) (on Adenosine receptor A1; in experiment [1]; at Vasopressin V2 receptor; in experiment [2]; in experiment [3]; in [4]) was greater than 10 µM throughout. Moreover, the concentration at half-maximal activity (AC50) in experiment [5] was greater than 10 µM; at Glucocorticoid receptor, greater than 30 µM; in [6], greater than 30 µM.

For the compound `OCCN(CCO)c1nc(N2CCCCC2)c2nc(N(CCO)CCO)nc(N3CCCCC3)c2n1` [DIPYRIDAMOLE], the AC50 is greater than 30 µM at Adenosine receptor A1; greater than 30 µM in experiment [1]; greater than 30 µM on Vasopressin V2 receptor; greater than 30 µM in experiment [2]; greater than 30 µM in experiment [3]; 1.4 µM in [4]. For the same compound, the results for the AC50 in experiment [5] and in [6] were greater than 30 µM and 4.5 µM, respectively.

For the compound `Nc1ccc(S(=O)(=O)Nc2ncccn2)cc1` [SULFADIAZINE], the AC50 (on Adenosine receptor A1; in experiment [1]; on Vasopressin V2 receptor; in experiment [2]; in experiment [3]; in experiment [4]) was greater than 10 µM throughout. Further, the concentration at half-maximal activity (AC50) in experiment [5] was greater than 10 µM; in experiment [6], greater than 30 µM.

`CC1Cc2ccccc2N1NC(=O)c1ccc(Cl)c(S(N)(=O)=O)c1` (stereo unspecified) [INDAPAMIDE]: the AC50 at Adenosine receptor A1 was greater than 30 µM; in experiment [1], greater than 30 µM; on Vasopressin V2 receptor, greater than 30 µM; in [2], greater than 10 µM; at Cannabinoid receptor 1, greater than 30 µM; in experiment [3], greater than 10 µM. Further, the concentration at half-maximal activity (AC50) in experiment [4], in experiment [5] and in experiment [6] was greater than 10 µM throughout.

Regarding `CCN(C(C)=O)c1cccc(-c2ccnc3c(C#N)cnn23)c1` [ZALEPLON], the concentration at half-maximal activity (AC50) was greater than 30 µM on Adenosine receptor A1; greater than 30 µM in experiment [1]; greater than 30 µM at Vasopressin V2 receptor; greater than 10 µM in experiment [2]; greater than 30 µM on Cannabinoid receptor 1; greater than 10 µM in experiment [5]. Also, the AC50 in experiment [6] was greater than 30 µM.
